What was measured:
Myzus persicae [1] = test: Myzus persicae spray test (Chinese cabbage leaf discs); assay type: in vivo; conditions: foliar, 120 h, 500 g/ha, after 5-6 days, read-out: efficacy
Description: Myzus persicae—Spray Test Solvent: 78 parts by weight of acetone • • 1.5 parts by weight of dimethylformamide Emulsifier: alkylaryl polyglycol ether To produce a suitable preparation of active compound, 1 part by weight of active compound is dissolved using the specified parts by weight of solvent and made up with water containing an emulsifier concentration of 1000 ppm until the desired concentration is attained. To produce further test concentrations, the formulation is diluted with emulsifier-containing water. Discs of Chinese cabbage leaves (Brassica pekinensis) infested by all stages of the green peach aphid (Myzus persicae) are sprayed with an active compound preparation of the desired concentration. After 5-6 days, the efficacy in % is determined. 100% means that all the aphids have been killed; 0% means that no aphids have been killed.

Myzus persicae [2] = test: Myzus persicae oral test; assay type: in vivo; conditions: 120 h, 20 ppm, oral uptake, after 5 days, read-out: efficacy
Description: Myzus persicae—Oral Test Solvent: 100 parts by weight of acetone To produce a suitable preparation of active compound, 1 part by weight of active compound is dissolved using the specified parts by weight of solvent and made up with water until the desired concentration is attained. 50 μl of the active compound preparation are transferred into microtitre plates and made up to a final volume of 200 μl with 150 μl of IPL41 insect medium (33%+15% sugar). Subsequently, the plates are sealed with parafilm, which a mixed population of green peach aphids (Myzus persicae) within a second microtitre plate is able to puncture and imbibe the solution through it. After 5 days, the efficacy in % is determined. 100% means that all the aphids have been killed; 0% means that no aphids have been killed.

| SMILES | pest or weed control at 500 g/ha (Myzus persicae [1]) | pest or weed control at 20 ppm (Myzus persicae [2]) |
| --- | --- | --- |
| COc1ccc(Cl)c(S(=O)(=O)NC(=O)c2nc(-c3c(F)cccc3F)c(C)[nH]2)c1 [Example 148] | 90% | 100% |
| COc1ccc(F)cc1S(=O)(=O)NC(=O)c1cn(C)c(-c2c(F)cccc2F)n1 [Example 17] | 90% | 100% |
| Cn1cc(C(=O)NS(=O)(=O)c2ccccc2Br)nc1-c1ncccc1F [Example 564] | 100% | 100% |
| Cn1cc(C(=O)NS(=O)(=O)c2ccccc2C(F)(F)F)nc1-c1c(F)cccc1F [Example 26] | 100% | 100% |
| CCc1[nH]c(-c2c(F)cccc2F)nc1C(=O)NS(=O)(=O)c1ccccc1Cl [Example 124] | 90% | 100% |
| Cn1cc(C(=O)NS(=O)(=O)c2ccccc2)nc1-c1c(F)cccc1Cl [Example 112] | 90% | 100% |
| Cn1cc(C(=O)NS(=O)(=O)c2ccccc2F)nc1-c1ccccc1Cl [Example 57] | 100% | 100% |
| Cc1cccc(C(F)(F)F)c1S(=O)(=O)NC(=O)c1cn(C)c(-c2ncccc2F)n1 [Example 563] | 100% | 100% |
| Cc1ccc(F)cc1S(=O)(=O)NC(=O)c1cn(C)c(-c2ncccc2F)n1 [Example 562] | 100% | 100% |
| Cn1nc(C(=O)NS(=O)(=O)c2ccccc2Cl)nc1-c1c(F)cccc1F [Example 11] | 100% | 100% |
| CCc1[nH]c(-c2c(F)cccc2F)nc1C(=O)NS(=O)(=O)c1ccccc1C [Example 125] | 90% | 100% |
| Cn1cc(C(=O)NS(=O)(=O)c2ccccc2Cl)nc1-c1ccccc1F [Example 94] | 100% | 100% |
| COc1ccccc1S(=O)(=O)NC(=O)c1cn(C)c(-c2c(F)cc(F)cc2F)n1 [Example 7] | 90% | 90% |
| Cn1cc(C(=O)NS(=O)(=O)c2ccccc2Cl)nc1-c1ccccc1[N+](=O)[O-] [Example 524] | 90% | 100% |
| Cc1ccccc1S(=O)(=O)NC(=O)c1nc(-c2c(F)cccc2F)n(C)n1 [Example 159] | 90% | 100% |
| COc1ccc(OC)c(S(=O)(=O)NC(=O)c2cn(C)c(-c3c(F)cccc3F)n2)c1 [Example 19] | 90% | 100% |
| Cc1ccccc1S(=O)(=O)NC(=O)c1nc(-c2c(F)cccc2F)c(C)[nH]1 [Example 147] | 100% | 100% |
| COc1ccc(C)c(S(=O)(=O)NC(=O)c2cn(C)c(-c3cccnc3Cl)n2)c1 [Example 565] | 100% | 100% |
| Cc1ccccc1S(=O)(=O)NC(=O)c1cn(C)c(-c2c(F)cccc2Cl)n1 [Example 110] | 90% | 100% |
| COc1ccc(C)cc1S(=O)(=O)NC(=O)c1cn(C)c(-c2c(F)cccc2F)n1 [Example 390] | 100% | 100% |
| Cc1cc(C(=O)NS(=O)(=O)c2c(Cl)cccc2Cl)nn1-c1ncccc1Cl [Example 268] | 90% | 100% |
| CCn1cc(C(=O)NS(=O)(=O)c2ccccc2Cl)nc1-c1c(F)cccc1F [Example 571] | 100% | 100% |
| COc1cccc(S(=O)(=O)NC(=O)c2cn(C)c(-c3c(F)cccc3F)n2)c1 [Example 388] | 90% | 100% |
| COc1ccc(Br)cc1S(=O)(=O)NC(=O)c1cn(C)c(-c2cccc(Cl)c2Cl)n1 [Example 559] | 100% | 100% |
| COc1ccc(F)cc1S(=O)(=O)NC(=O)c1cn(C)c(-c2cccc(Cl)c2Cl)n1 [Example 463] | 100% | 100% |
| COc1ccccc1S(=O)(=O)NC(=O)c1cn(C)c(-c2cccnc2Cl)n1 [Example 492] | 100% | 100% |
| COc1ccc(F)cc1S(=O)(=O)NC(=O)c1cn(C)c(-c2ncccc2Cl)n1 [Example 591] | 100% | 100% |
| Cc1cccc([N+](=O)[O-])c1S(=O)(=O)NC(=O)c1cn(C)c(-c2c(F)cccc2F)n1 [Example 367] | 90% | 100% |

| SMILES | pest or weed control at 500 g/ha (Myzus persicae [1]) | pest or weed control at 20 ppm (Myzus persicae [2]) |
| --- | --- | --- |
| Cn1cc(C(=O)NS(=O)(=O)c2c(F)cccc2F)nc1-c1ccccc1Cl [Example 53] | 100% | 100% |
| Cc1ccsc1S(=O)(=O)NC(=O)c1cn(C)c(-c2ncccc2Cl)n1 [Example 592] | 100% | 100% |
| Cn1cc(C(=O)NS(=O)(=O)c2c(Cl)cccc2Br)nc1-c1ncccc1Cl [Example 589] | 100% | 100% |
| CCS(=O)(=O)NC(=O)c1cn(-c2ccccc2)c(-c2ccccc2Cl)n1 [Example 75] | 100% | 90% |
| Cn1cc(C(=O)NS(=O)(=O)c2ccccc2C(F)(F)F)nc1-c1ccccc1F [Example 30] | 90% | 100% |
| COc1ccccc1S(=O)(=O)NC(=O)c1cn(C)c(-c2c(F)cccc2Cl)n1 [Example 111] | 100% | 100% |
| COc1ccc(OC)c(S(=O)(=O)NC(=O)c2cn(C)c(-c3ncccc3Cl)n2)c1 [Example 598] | 90% | 100% |
| COc1ccc(F)c(S(=O)(=O)NC(=O)c2cn(C)c(-c3c(F)cccc3Cl)n2)c1 [Example 157] | 100% | 100% |
| Cn1cc(C(=O)NS(=O)(=O)c2ccccc2Cl)nc1-c1ccccc1C(F)(F)F [Example 115] | 100% | 90% |
| Cn1cc(C(=O)NS(=O)(=O)c2ccccc2Cl)nc1-c1ncccc1Br [Example 578] | 100% | 100% |
| COc1ccc(Cl)c(C)c1S(=O)(=O)NC(=O)c1cn(C)c(-c2c(F)cccc2F)n1 [Example 433] | 90% | 100% |
| Cn1cc(C(=O)NS(=O)(=O)c2ccccc2Br)nc1-c1ncccc1Cl [Example 585] | 100% | 100% |
| Cn1cc(C(=O)NS(=O)(=O)c2cnccc2Cl)nc1-c1ccccc1Cl [Example 220] | 100% | 100% |
| COc1ccccc1S(=O)(=O)NC(=O)c1cn(C)c(-c2ncccc2Cl)n1 [Example 574] | 100% | 100% |
| COc1ccc(F)c(S(=O)(=O)NC(=O)c2cn(C)c(-c3c(F)cccc3F)n2)c1 [Example 170] | 90% | 100% |
| CCn1cc(C(=O)NS(=O)(=O)c2ccccc2C)nc1-c1c(F)cccc1F [Example 570] | 100% | 100% |
| Cn1cc(C(=O)NS(=O)(=O)c2ccccc2Cl)nc1-c1c(F)cccc1F [Example 91] | 90% | 100% |
| Cn1cc(C(=O)NS(=O)(=O)c2ccccc2Cl)nc1-c1c(F)cccc1C#N [Example 501] | 100% | 100% |
| CCn1cc(C(=O)NS(=O)(=O)c2ccccc2OC)nc1-c1c(F)cccc1F [Example 569] | 100% | 100% |
| COc1cccc(F)c1S(=O)(=O)NC(=O)c1cn(C)c(-c2c(F)cccc2F)n1 [Example 381] | 100% | 100% |
| COc1ccc(Cl)c(S(=O)(=O)NC(=O)c2cn(C)c(-c3ccccc3F)n2)c1 [Example 95] | 90% | 100% |
| Cc1ccccc1-c1nc(C(=O)NS(=O)(=O)c2ccccc2C(F)(F)F)cn1C [Example 28] | 100% | 100% |
| COc1cc(C)c(S(=O)(=O)NC(=O)c2cn(C)c(-c3c(F)cccc3F)n2)cc1C [Example 138] | 100% |  |
| Cn1cc(C(=O)NS(=O)(=O)CC(F)(F)F)nc1-c1ccccc1F [Example 90] | 100% |  |
| COc1ccccc1S(=O)(=O)NC(=O)c1cn(C)c(-c2ccccc2[N+](=O)[O-])n1 [Example 529] | 100% |  |
| Cn1cc(C(=O)NS(C)(=O)=O)nc1-c1ccccc1Cl [Example 65] | 90% |  |
| Cc1nc(Cl)sc1S(=O)(=O)NC(=O)c1cn(C)c(-c2c(F)cccc2F)n1 [Example 346] | 90% |  |
